The assay deals with T1, human thyroid receptor beta ligand-binding domain (LBD) (Homo sapiens, UniProt P10828).
T1 construct: Thyroid receptor beta LBD was added to the plate at a final concentration of 1 nM; purchased Invitrogen
T1 sequence (P10828 217-461 limits assumed): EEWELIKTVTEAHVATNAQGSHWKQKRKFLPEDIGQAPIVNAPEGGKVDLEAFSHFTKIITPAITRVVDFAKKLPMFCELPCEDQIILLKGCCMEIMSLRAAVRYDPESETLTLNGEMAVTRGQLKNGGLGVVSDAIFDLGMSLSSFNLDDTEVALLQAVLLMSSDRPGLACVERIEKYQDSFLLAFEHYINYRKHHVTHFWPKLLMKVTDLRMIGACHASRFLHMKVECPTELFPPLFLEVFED
Nature of the assay: THR Biochemical Assay (Assay 1): TR-FRET thyroid receptor beta coactivator assay. The following applies: GST-tagged thyroid receptor beta LBD 1 nM, fluorescein SRC2-2 coactivator peptide 200 nM, 1 hr at rt, TR-FRET ratio 520:495; read-out: Assay 1 (EC50, THR-beta agonist). The source says: THR Biochemical Assay (Assay 1)
The TR-FRET thyroid receptor beta coactivator assay was used with slight, optimized modifications of the manufacturer's protocol (Invitrogen). The assay uses a terbium-labeled anti-GST antibody, a glutathione-S-transferase (GST) tagged human thyroid receptor, beta or alpha, ligand-binding domain (LBD), and a fluorescein labeled SRC2-2 coactivator peptide. The antibody interacts with the LBD, where the agonist also binds, resulting in increased affinity for the SRC2-2 coactivator peptide causing energy transfer […] the acceptor fluorophore and a FRET emission shift from 495 to 520 nm. The energy transfer was detected as an increase in the fluorescence emission of the fluorescein acceptor, and a decrease in the fluorescence emission of the terbium donor. The assay was performed in a 384-well black plate in a final volume of 20 μL. Serial dilution of various test agonists was performed in DMSO (1% final DMSO concentration) and added to the test plate. Thyroid receptor beta LBD was added to the plate at a final concentration of 1 nM, followed by the mixture of the fluorescein labeled SRC2-2 coactivator peptide, and the terbium-labeled anti-GST antibody at final concentrations of 200 nM and 2 nM respectively. The assay was incubated for 1 hr at rt protected from light. The TR-FRET was then measured on a Victor multilabel reader (Perkin Elmer) using an excitation wavelength of 340 nm with emission filters of 495 nm and 520 nm. The assay was quantified by expressing a ratio (520:495) of the intensities, and the resulting activation curves; EC50 values were generated using a sigmoidal dose response (variable slope) equation in GraphPad™ Prism 8.0.

As to `Cc1cc(-n2nc(N)c(=O)[nH]c2=O)cc(C)c1Cc1ccc2c(c1)C1(CC(F)(F)C1)C(=O)N2` [Compound 8, 6-amino-2-(4-{3,3-difluoro-2′-oxo-1′H-spiro[cyclobutane-1,3′-indol]-5′-ylmethyl}-3,5-dimethylphenyl)-4H-1,2,4-triazine-3,5-dione], the EC50 is over 25000 nM.

Take `Cc1cc(NC(=O)c2noc(=O)[nH]2)cc(C)c1Oc1ccc2c(c1)C1(CCC1)C(=O)N2` [Compound 25, N-(3,5-dimethyl-4-((2′-oxospiro[cyclobutane-1,3′-indolin]-5′-yl)oxy)phenyl)-5-oxo-4,5-dihydro-1,2,4-oxadiazole-3-carboxamide]: the EC50 is under 50 nM.

As to `Cc1cc2c(cc1Oc1c(Cl)cc(-n3nc(N)c(=O)[nH]c3=O)cc1Cl)C1(CCC1)C(=O)N2` [Compound 19, 6-amino-2-(3,5-dichloro-4-((6′-methyl-2′-oxospiro[cyclobutane-1,3′-indolin]-5′-yl)oxy)phenyl)-1,2,4-triazine-3,5(2H,4H)-dione], the EC50 was over 25000 nM.

As to `Cc1c(Oc2c(Cl)cc(NC(=O)c3noc(=O)[nH]3)cc2Cl)ccc2c1C1(CC1)C(=O)N2` [Compound 23, N-(3,5-dichloro-4-((4′-methyl-2′-oxospiro[cyclopropane-1,3′-indolin]-5′-yl)oxy)phenyl)-5-oxo-4,5-dihydro-1,2,4-oxadiazole-3-carboxamide], the EC50 was under 50 nM.

`Cc1cc(-n2nc(N)c(=O)[nH]c2=O)cc(C)c1Cc1ccc2c(n1)C(C)(C)C(=O)N2` [Compound 12, 6-amino-2-[4-({3,3-dimethyl-2-oxo-1H-pyrrolo[3,2-b]pyridin-5-yl}methyl)-3,5-dimethylphenyl]-4H-1,2,4-triazine-3,5-dione]: the EC50 is 50 to 250 nM.

Consider `Nc1nn(-c2cc(Cl)c(Oc3ccc4c(c3)C3(CC(F)(F)C3)C(=O)N4)c(Cl)c2)c(=O)[nH]c1=O` [Compound 11, 6-amino-2-(3,5-dichloro-4-((3,3-difluoro-2′-oxospiro[cyclobutane-1,3′-indolin]-5′-yl)oxy)phenyl)-1,2,4-triazine-3,5(2H,4H)-dione], for which the EC50 lay in the range of 50 to 250 nM.

With `Cc1c(Oc2c(Cl)cc(-c3nn(C)c(=O)[nH]c3=O)cc2Cl)ccc2c1C1(CC1)C(=O)N2` [Compound 37, 6-(3,5-dichloro-4-((4′-methyl-2′-oxospiro[cyclopropane-1,3′-indolin]-5′-yl)oxy)phenyl)-2-methyl-1,2,4-triazine-3,5(2H,4H)-dione], the EC50 was under 50 nM.

With `Cc1cc(-n2nc(N)c(=O)[nH]c2=O)cc(C)c1Oc1ccc2c(c1)C1(CCC1)C(=O)N2` [Compound 24, 6-amino-2-(3,5-dimethyl-4-((2′-oxospiro[cyclobutane-1,3′-indolin]-5′-yl)oxy)phenyl)-1,2,4-triazine-3,5(2H,4H)-dione], the EC50 is under 50 nM.

Take `Cc1cc(NC(=O)c2noc(=O)[nH]2)cc(C)c1Oc1ccc2c(c1)C1(CC1)C(=O)N2` [Compound 39, N-(3,5-dimethyl-4-((2′-oxospiro[cyclopropane-1,3′-indolin]-5′-yl)oxy)phenyl)-5-oxo-4,5-dihydro-1,2,4-oxadiazole-3-carboxamide]: the EC50 is under 50 nM.

In the case of `O=C(Nc1cc(Cl)c(Oc2ccc3c(c2Cl)C2(CC2)C(=O)N3)c(Cl)c1)c1noc(=O)[nH]1` [Compound 29, N-(3,5-dichloro-4-((4′-chloro-2′-oxospiro[cyclopropane-1,3′-indolin]-5′-yl)oxy)phenyl)-5-oxo-4,5-dihydro-1,2,4-oxadiazole-3-carboxamide], the EC50 was under 50 nM.

For `Cc1cc(OCC(=O)O)c(C)c(C)c1Cc1ccc2c(c1)C1(CC1)C(=O)N2` [Compound 20, 2-(2,3,5-trimethyl-4-((2′-oxospiro[cyclopropane-1,3′-indolin]-5′-yl)methyl)phenoxy)acetic acid], the EC50 is under 50 nM.

Turning to `N#Cc1nn(-c2cc(Cl)c(Oc3ccc4c(c3)C3(CC(F)(F)C3)C(=O)N4)c(Cl)c2)c(=O)[nH]c1=O` [Compound 9, 2-(3,5-dichloro-4-((3,3-difluoro-2′-oxospiro[cyclobutane-1,3′-indolin]-5′-yl)oxy)phenyl)-3,5-dioxo-2,3,4,5-tetrahydro-1,2,4-triazine-6-carbonitrile], the EC50 was under 50 nM.

As to `Cc1c(Oc2c(Cl)cc(-n3nc(N)c(=O)[nH]c3=O)cc2Cl)ccc2c1C1(CCC1)C(=O)N2` [Compound 18, 6-amino-2-(3,5-dichloro-4-((4′-methyl-2′-oxospiro[cyclobutane-1,3′-indolin]-5′-yl)oxy)phenyl)-1,2,4-triazine-3,5(2H,4H)-dione], the EC50 is under 50 nM.

Turning to `CC1CC12C(=O)Nc1ccc(Oc3c(Cl)cc(-n4nc(N)c(=O)[nH]c4=O)cc3Cl)cc12` (stereo not shown) [Compound 33, 6-amino-2-(3,5-dichloro-4-((2-methyl-2′-oxospiro[cyclopropane-1,3′-indolin]-5′-yl)oxy)phenyl)-1,2,4-triazine-3,5(2H,4H)-dione], the EC50 is under 50 nM.

Turning to `Nc1nn(-c2cc(Cl)c(Oc3ccc4c(c3Cl)C3(CC3)C(=O)N4)c(Cl)c2)c(=O)[nH]c1=O` [Compound 30, 6-amino-2-(3,5-dichloro-4-((4′-chloro-2′-oxospiro[cyclopropane-1,3′-indolin]-5′-yl)oxy)phenyl)-1,2,4-triazine-3,5(2H,4H)-dione], the EC50 is under 50 nM.

`O=C(O)C(=O)Nc1cc(Cl)c(Oc2ccc3c(c2)C(F)(F)C(=O)N3)c(Cl)c1` [Compound 36, 2-((3,5-dichloro-4-((3,3-difluoro-2-oxoindolin-5-yl)oxy)phenyl)amino)-2-oxoacetic acid]: the EC50 is under 50 nM.

For `Cc1cc(-n2nc(N)c(=O)[nH]c2=O)cc(C)c1Cc1ccc2c(c1)C1(CCC1)C(=O)N2` [Compound 4, 6-amino-2-(3,5-dimethyl-4-{2′-oxo-1′H-spiro[cyclobutane-1,3′-indol]-5′-ylmethyl}phenyl)-4H-1,2,4-triazine-3,5-dione], the EC50 was under 50 nM.

For the compound `O=C(Nc1cc(Cl)c(Oc2ccc3c(c2)C2(CC2)C(=O)N3)c(C(F)(F)F)c1)c1noc(=O)[nH]1` [Compound 44, N-(3-chloro-4-((2′-oxospiro[cyclopropane-1,3′-indolin]-5′-yl)oxy)-5-(trifluoromethyl)phenyl)-5-oxo-4,5-dihydro-1,2,4-oxadiazole-3-carboxamide], the EC50 was under 50 nM.

Regarding `O=C1Nc2ccc(Oc3c(Cl)cc(-n4ncc(=O)[nH]c4=O)cc3Cl)c(Cl)c2C12CC2` [Compound 31, 2-(3,5-dichloro-4-((4′-chloro-2′-oxospiro[cyclopropane-1,3′-indolin]-5′-yl)oxy)phenyl)-1,2,4-triazine-3,5(2H,4H)-dione], the EC50 is under 50 nM.

For `CC1CC12C(=O)Nc1ccc(Oc3c(Cl)cc(NC(=O)C(=O)O)cc3Cl)cc12` (single isomer, unassigned) [Compound 34, 2-((3,5-dichloro-4-((2-methyl-2′-oxospiro[cyclopropane-1,3′-indolin]-5′-yl)oxy)phenyl)amino)-2-oxoacetic acid], the EC50 is under 50 nM.

Consider `CC1CC12C(=O)Nc1ccc(Oc3c(Cl)cc(NC(=O)C(=O)O)cc3Cl)cc12` (single isomer, unassigned) [Compound 35, 2-((3,5-dichloro-4-((2-methyl-2′-oxospiro[cyclopropane-1,3′-indolin]-5′-yl)oxy)phenyl)amino)-2-oxoacetic acid], for which the EC50 was under 50 nM.

Take `Cc1cc(-n2nc(C#N)c(=O)[nH]c2=O)cc(C)c1Oc1ccc2c(c1)C1(CCC1)C(=O)N2` [Compound 3, 2-(3,5-dimethyl-4-((2′-oxospiro[cyclobutane-1,3′-indolin]-5′-yl)oxy)phenyl)-3,5-dioxo-2,3,4,5-tetrahydro-1,2,4-triazine-6-carbonitrile]: the EC50 was under 50 nM.

Consider `Cn1nc(-c2cc(Cl)c(Oc3ccc4c(c3Cl)C3(CC3)C(=O)N4)c(Cl)c2)c(=O)[nH]c1=O` [Compound 43, 6-(3,5-dichloro-4-((4′-chloro-2′-oxospiro[cyclopropane-1,3′-indolin]-5′-yl)oxy)phenyl)-2-methyl-1,2,4-triazine-3,5(2H,4H)-dione], for which the EC50 is under 50 nM.

Turning to `CC1CC12C(=O)Nc1ccc(Oc3c(Cl)cc(-n4nc(N)c(=O)[nH]c4=O)cc3Cl)cc12` (single isomer, unassigned) [Compound 32, 6-amino-2-(3,5-dichloro-4-((2-methyl-2′-oxospiro[cyclopropane-1,3′-indolin]-5′-yl)oxy)phenyl)-1,2,4-triazine-3,5(2H,4H)-dione], the EC50 is under 50 nM.

On to `Nc1nn(-c2cc(Cl)c(Oc3ccc4c(c3)C3(CCC3)C(=O)N4)c(Cl)c2)c(=O)[nH]c1=O` [Compound 6, 6-amino-2-(3,5-dichloro-4-((2′-oxospiro[cyclobutane-1,3′-indolin]-5′-yl)oxy)phenyl)-1,2,4-triazine-3,5(2H,4H)-dione], for which the EC50 was under 50 nM.
